The test system of data set [1] is neonatal rat ventricular myocytes. Type of data set: cell-based.
Data set [2] deals with ANF promoter (ANF-Luc). In words: ANF-Luc reporter gene assay in neonatal cardiomyocytes. The class given is cell-based, rat. Conditions: 8-CPT 1 μM, compared to control cells. Here is the method:
FIGS. 2A, 2C and 2D: Neonatal cardiomycoytes were transfected with ANF-Luc (FIG. 2A), SkM-α-actin-Luc (FIG. 2C) or c-fos-SRE-Luc (FIG. 2D) and EpacWT, RacG12V or the empty vector (mock) as control and treated or not with 8-CPT (1 μM). Two days after transfection, cells were assayed for luciferase activity. Results are expressed as percentage activation of control. Results are means±S.E.M. for 3 independent experiments performed in triplicates.
In FIGS. 8A, 8B and 8C, cardiomyocytes infected with Ad.GFP (control), Ad.RacS17N, Ad.EpacWT, or Ad.EpacWT and Ad.RacS17N were transfected with NFAT-Luc, MEF2-Luc or ANF-Luc. Two days after, Luc activity was determined. Luc activity was normalized to control for each experiment, and were expressed as means±S.E.M of at least 3 separate experiments performed in triplicate
The plasmid constructs were generously provided by the following: a −3003 bp fragment of the rat ANF promoter fused to the luciferase reporter gene (ANF-Luc) by Dr. K. Knowlton, Luciferase reporter genes linked to promoters for skeletal muscle α-actin (SkM-α-actin-Luc) and serum response element-regulated c-fos (c-fos-SRE-Luc) by Dr. M. D. Schneider, Epac1 plasmid constructs by Dr. J. Bos. […]

Data set [3] has as its system Rac. In words: Rac activation assay (Rac-GTP pull-down), primary rat ventricular cardiomyocytes. The class given is cell-based.
Data set [4] relates to neonatal rat ventricular myocytes. Description: [3H]-leucine incorporation (protein synthesis), neonatal cardiomyocytes. Conditions: 8-CPT 1 μM, PE 1 μM or adenovirus. Type of data set: cell-based.
The test system is the same in data set [5]. Description: Sarcomeric / cytoskeletal organization by phalloidin staining, neonatal cardiomyocytes. As to conditions: 48 h; 8-CPT (1 mM) and PE (1 mM) as printed, in Ad.GFP cells; vs Ad.GFP alone. Type of data set: cell-based.
Data set [6] has as its system Rac. Description: Rac activation assay (Rac-GTP pull-down), HL-1 atrial cells. Type of data set: cell-based, mouse.
Experimental: Rac activation was determined as above. […] Rac-GTP samples and total lysates were separated on SDS-PAGE gels and transferred onto a polyvinylidene difluoride (PVDF) membrane (Amersham Pharmacia Biotech).
In data set [7] the test system is neonatal rat ventricular myocytes. Description: Cell surface area by computer-assisted planimetry, neonatal cardiomyocytes. Conditions: for Cell surface area: 8-CPT 1 μM or PE 1 μM or adenovirus, compared to control Ad.GFP. The class given is cell-based.
The conditions of data set [8]: cited from earlier work.
Data set [9] concerns MEF2 (MEF2-Luc). In words: MEF2-Luc transcriptional activity in cardiomyocytes. As to conditions: cells infected with Ad.EpacWT or Ad.Epac-DcAMP; CsA 0.5 μM, KN-93 1 μM, or co-infection. The class given is cell-based, rat.

We go through six compounds from US20090169540A1, “Use Of An Antagonist Of Epac For Treating Human Cardiac Hypertrophy” (priority 2005, published 2009).

Each structure is given as a SMILES string. Like-named read-outs stand apart in the source and are kept apart here.

With `CO[C@@H]1[C@@H]2OP(=O)(O)OC[C@H]2O[C@H]1n1c(Sc2ccc(Cl)cc2)nc2c(N)ncnc21` [8-CPT, 8-(4-chloro-phenylthio)-2′-O-methyladenosine-3′-5′cyclic monophosphate], the “Frequency of spontaneous Ca2+ transients” value is recorded as 0.51±0.04 Hz in data set [1] and 0.40±0.05 Hz in data set [1] (8-CPT 100 nM, physiological external [Ca2+], n=13). The “Ca2+ spike frequency” value was found to be 1.25±0.35 Hz in [1] (8-CPT 10 μM in the presence of 20 mM external Cs+, n=8); 0.12±0.02 Hz in data set [1] (8-CPT 100 μM, absence of external Ca2+, n=4); 0.23±0.049 Hz in [1] (8-CPT 100 μM, absence of external Ca2+, presence of H89 1 μM, n=8). Further, the “Effect on Ca2+ transients” value in data set [1] (8-CPT 10 μM, absence of external Ca2+) was “had no effect”. For the same compound, the “Amplitude of Ca2+ spikes” value in data set [1] (8-CPT 10 μM, physiological external [Ca2+]) was “without changing the amplitude of the spikes”. The “Activation of the ANF-Luc reporter gene” value in data set [2] is “three fold activation”. Moreover, the “Rac activation in cells infected with Ad.EpacWT” value in data set [3] (Ad.EpacWT-infected cells treated with 8-CPT 1 μM for 10 min) is recorded as “further increased”. Moreover, the “Rac activation (Rac-GTP)” value in data set [3] (activation of endogenous Epac, 8-CPT 1 μM, 10 min, rat cardiac myocytes) is recorded as “increased Rac activation”. In addition, the “Protein synthesis ([3H]-leucine uptake)” value in data set [4] is recorded as “approximate two fold increase”. The “Cytoskeletal (F-actin) / sarcomeric organization” value in [5] is “apparent increase of the F-actin meshwork and an heavily striated appearance”. Further, in data set [6] (HL-1 adult mouse atrial cells, 100 μM, 10 min exposure), the “Amount of Rac-GTP / Rac activation” value was “strong increase in the amount of Rac-GTP”. The “Treatment time upon which 8-CPT-induced Rac activation was detected” value in data set [6] (HL-1 cells, 8-CPT 10 μM time course (FIG. 1C)) came to 5 min. Further, the Cell surface area result in data set [7] (2 days) is recorded as “two fold increase”. Besides, the “Effect of Ad.EpacWT on cell surface area in the presence of 8-CPT” value in data set [7] (Ad.EpacWT-infected cells plus 8-CPT 1 μM) is “not further increased”.

`CCCCc1oc2ccccc2c1C(=O)c1cc(I)c(OCCN(CC)CC)c(I)c1` [Amiodarone]: in data set [8] (as high as, in some series), the Hypothyroidism incidence is reported as 8%-19%. Also, in [8] (human, in vivo), the Hyperthyroidism incidence entry is on record as “about 2%”; the “Liver function test abnormalities incidence” value was 4%-9%; the “Other serious side effect” value was “optic neuropathy, which can lead to blindness”; the Proarrhythmia incidence is on record as 2%-5%. Moreover, the Hypothyroidism incidence in [8] (in some cases) is listed as 2%-4%.

With `O=S(=O)(NCCNC/C=C/c1ccc(Br)cc1)c1cccc2cnccc12` [H89], in [1] (H89 1 μM, 8-CPT 100 μM, absence of external Ca2+), the “8-CPT-induced increase in Ca2+ transients frequency” value is listed as “failed to block”.

Consider `COc1ccc(S(=O)(=O)N(CCO)c2ccccc2CN(C)C/C=C/c2ccc(Cl)cc2)cc1` [KN-93], for which the “Epac-induced MEF2 transcriptional (luciferase) activity” value in [9] is recorded as “completely blocked”. Also, the “Ad.Epac-DcAMP-induced increase in cell surface area” value in data set [7] (KN-93 1 μM, 2 days) is “significantly decreased”.

Regarding `CNC[C@H](O)c1cccc(O)c1` [PE, phenylephrine], in data set [4], the “Protein synthesis ([3H]-leucine uptake)” value is recorded as “approximate two fold increase”. In addition, the “Cytoskeletal (F-actin) / sarcomeric organization” value in [5] was “comparable”. Also, the Cell surface area entry in [7] (2 days) is “Identical results”.

As to `C[C@H](CCC(=O)O)C[C@H](C)C[C@H](C)C(=O)/C=C(\O)[C@H](C)C[C@H](C)C/C=C/[C@@H](C)[C@@H](O)[C@@H](C)[C@@H](O)C[C@@H]1CC[C@@](C)([C@H]2CC[C@@](C)([C@@H](C)O)O2)O1` [ionomycin], the “Effect on Rac activation relative to positive control PE (1 μM)” value in [3] (ionomycin 1 μM vs PE 1 μM 15 min) is reported as “as potent as PE”. The Rac activation entry in data set [3] (ionomycin 1 μM, different times of incubation) is reported as “increased Rac activation in a time dependent manner”.
